Where “and” joins values, the source holds several entries; their conditions need not be identical. Identical values can stand only once.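 Briefly, cells in 96-well plates were exposed to five compound concentrations for 48 h, and endpoints were estimated by linear interpolation. Abbreviation: GI50, concentration required for 50% inhibition of growth. TGI is the concentration that stops growth completely.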
Tests used:
Experiment in all cases: NCI-60 cell line screen, 48 h
IGROV1 ovarian = test system: IGROV1 ovarian
NCI-H522 lung = test system: NCI-H522 lung
NCI-H23 lung = test system: NCI-H23 lung
K-562 leukemia = test system: K-562 leukemia
EKVX NSCLC = test system: EKVX NSCLC
NCI-H226 lung = test system: NCI-H226 lung
UACC-257 melanoma = test system: UACC-257 melanoma
SK-MEL-5 melanoma = test system: SK-MEL-5 melanoma
DU-145 prostate = test system: DU-145 prostate
NCI/ADR-RES ovarian = test system: NCI/ADR-RES ovarian

Work on `CC(O)C(N=Cc1ccccc1[O-])C(=O)[O-].CC(O)C(N=Cc1ccccc1[O-])C(=O)[O-].[Co+2]` (stereo not drawn) yielded a GI50 (IGROV1 ovarian) greater than 100 µM, a TGI (IGROV1 ovarian) greater than 100 µM and a GI50 (NCI-H522 lung) greater than 100 µM. It also gave a TGI (NCI-H522 lung) greater than 100 µM, a GI50 (NCI-H23 lung) greater than 100 µM and a TGI (NCI-H23 lung) greater than 100 µM. The GI50 (K-562 leukemia) was 98.4 µM, the TGI (K-562 leukemia) was greater than 100 µM and the GI50 (EKVX NSCLC) was greater than 100 µM. It also gave a TGI (EKVX NSCLC) greater than 100 µM, a GI50 (NCI-H226 lung) of 28.6 µM and a TGI (NCI-H226 lung) greater than 100 µM. The GI50 (UACC-257 melanoma) was greater than 100 µM and the TGI (UACC-257 melanoma) was greater than 100 µM.

Work on `O=S(=O)([O-])c1ccc2c(c1)-c1nc-2nc2[n-]c(nc3nc(nc4[n-]c(n1)c1ccc(S(=O)(=O)[O-])cc41)-c1cc(S(=O)(=O)[O-])ccc1-3)c1ccc(S(=O)(=O)[O-])cc21.[Cu+2].[Na+]` yielded a GI50 (IGROV1 ovarian) greater than 100 µM, a TGI (IGROV1 ovarian) greater than 100 µM and a GI50 (NCI-H522 lung) of 44.8 µM. The TGI (NCI-H522 lung) was greater than 100 µM, the GI50 (NCI-H23 lung) was 98.4 µM and the TGI (NCI-H23 lung) was greater than 100 µM. The GI50 (SK-MEL-5 melanoma) was greater than 100 µM, the TGI (SK-MEL-5 melanoma) was greater than 100 µM and the GI50 (K-562 leukemia) was 0.749 µM. For the same molecule, the TGI (K-562 leukemia) was greater than 50.3 µM, the GI50 (EKVX NSCLC) was greater than 60.4 µM and the TGI (EKVX NSCLC) was greater than 100 µM. For the same molecule, the GI50 (DU-145 prostate) was greater than 100 µM, the TGI (DU-145 prostate) was greater than 100 µM and the GI50 (NCI-H226 lung) was greater than 100 µM. For the same molecule, the TGI (NCI-H226 lung) was greater than 100 µM, the GI50 (UACC-257 melanoma) was greater than 100 µM and the TGI (UACC-257 melanoma) was greater than 100 µM.

`O=[n+]1c2c(n([O-])c3ccccc31)CCCCCCCCCC2` showed a TGI (IGROV1 ovarian) greater than 100 µM, a TGI (NCI-H522 lung) greater than 100 µM and a TGI (NCI-H23 lung) greater than 100 µM. The TGI (K-562 leukemia) was greater than 100 µM, the TGI (EKVX NSCLC) was greater than 100 µM and the TGI (NCI-H226 lung) was 61.8 µM. It also gave a TGI (UACC-257 melanoma) greater than 100 µM.

In the case of `COc1ccc(NC(=O)CCc2cc(-c3ccc(O)c(OC)c3)nc(NC#N)n2)cc1`, the TGI (IGROV1 ovarian) was greater than 100 µM, the TGI (NCI-H23 lung) was greater than 100 µM and the TGI (K-562 leukemia) was greater than 100 µM. For the same molecule, the TGI (EKVX NSCLC) was greater than 100 µM, the TGI (NCI-H226 lung) was greater than 100 µM and the TGI (UACC-257 melanoma) was greater than 100 µM.

For `O=C(Nc1nc2ncn(CCI)c2c(=O)[nH]1)c1ccccc1`, the TGI (IGROV1 ovarian) was greater than 100 µM, the TGI (NCI-H522 lung) was greater than 100 µM and the TGI (NCI-H23 lung) was greater than 100 µM. It also gave a TGI (SK-MEL-5 melanoma) greater than 100 µM, a TGI (K-562 leukemia) greater than 100 µM and a TGI (EKVX NSCLC) greater than 100 µM. The TGI (NCI-H226 lung) was 77.4 µM and the TGI (UACC-257 melanoma) was greater than 100 µM.

With `CCN1CCN(c2ccc(Nc3cc(N(C)C(=O)Nc4c(Cl)c(OC)cc(OC)c4Cl)ncn3)cc2)CC1` the GI50 (IGROV1 ovarian) was 4.12 µM, the TGI (IGROV1 ovarian) was 22.6 µM and the GI50 (NCI/ADR-RES ovarian) was 3.7 µM. It also gave a TGI (NCI/ADR-RES ovarian) greater than 64.5 µM, a GI50 (NCI-H522 lung) of 5.21 µM and a TGI (NCI-H522 lung) of 10.9 µM. The GI50 (NCI-H23 lung) was 4.35 µM, the TGI (NCI-H23 lung) was 44.6 µM and the GI50 (SK-MEL-5 melanoma) was 4.27 µM. For the same molecule, the TGI (SK-MEL-5 melanoma) was 8.47 µM, the GI50 (K-562 leukemia) was 2.09 µM and the TGI (K-562 leukemia) was 5.5 µM. For the same molecule, the GI50 (DU-145 prostate) was 2.33 µM, the TGI (DU-145 prostate) was 9.75 µM and the GI50 (UACC-257 melanoma) was 1.77 µM. The TGI (UACC-257 melanoma) was 3.7 µM.

`CCOC(=O)Oc1c(OC)cc(C(=O)NC2CCc3cc(OC)c(OC)c(OC)c3-c3ccc(SC)c(=O)cc32)cc1OC` (stereo not drawn) gave a GI50 (IGROV1 ovarian) of less than 0.007 µM, a TGI (IGROV1 ovarian) greater than 70 µM and a TGI (NCI-H522 lung) of less than 0.007 µM. For the same molecule, the GI50 (NCI-H23 lung) was less than 0.007 µM, the TGI (NCI-H23 lung) was 0.266 µM and 0.0388 µM and the TGI (SK-MEL-5 melanoma) was 0.916 µM. The TGI (K-562 leukemia) was 0.774 µM, the TGI (EKVX NSCLC) was 37.9 µM and the GI50 (NCI-H226 lung) was 0.00709 µM. The TGI (NCI-H226 lung) was 0.0974 µM and 0.0242 µM, the GI50 (UACC-257 melanoma) was less than 0.007 µM and the TGI (UACC-257 melanoma) was greater than 70 µM.

Molecule `CNC(=S)NC1CCCCC1NC(=S)NC` (stereo not drawn) has a TGI (IGROV1 ovarian) greater than 100 µM, a TGI (NCI-H522 lung) greater than 100 µM and a TGI (NCI-H23 lung) greater than 100 µM. The TGI (SK-MEL-5 melanoma) was greater than 100 µM, the TGI (K-562 leukemia) was greater than 100 µM and the TGI (EKVX NSCLC) was greater than 100 µM. For the same molecule, the TGI (NCI-H226 lung) was greater than 100 µM.

`Cc1cc(Br)cc(C)c1NC(=O)C(=O)C(C(=O)c1ccc2ccccc2c1)C1OC(=O)c2ccccc21` (stereo not drawn) showed a TGI (IGROV1 ovarian) of 51.8 µM, a TGI (NCI-H522 lung) of 22.8 µM and a TGI (NCI-H23 lung) of 13.6 µM. For the same molecule, the TGI (SK-MEL-5 melanoma) was 23.8 µM, the TGI (K-562 leukemia) was greater than 72.9 µM and the TGI (EKVX NSCLC) was 65.3 µM. For the same molecule, the TGI (NCI-H226 lung) was 11.2 µM and the TGI (UACC-257 melanoma) was 17.5 µM.

`C=CC1CC12C(=O)C1OC2(C)C2C(=O)c3cc4ccccc4cc3C(=O)C12` (stereo not drawn) showed a GI50 (IGROV1 ovarian) of 39 µM, a TGI (IGROV1 ovarian) greater than 100 µM and a GI50 (NCI/ADR-RES ovarian) of 26.9 µM. The TGI (NCI/ADR-RES ovarian) was 95.4 µM, the GI50 (NCI-H522 lung) was 29.3 µM and the TGI (NCI-H522 lung) was greater than 100 µM. For the same molecule, the GI50 (NCI-H23 lung) was 25.9 µM, the TGI (NCI-H23 lung) was greater than 100 µM and the GI50 (EKVX NSCLC) was 16.8 µM. The TGI (EKVX NSCLC) was greater than 100 µM, the GI50 (NCI-H226 lung) was 21.5 µM and the TGI (NCI-H226 lung) was 79.8 µM. It also gave a GI50 (UACC-257 melanoma) of 21.5 µM and a TGI (UACC-257 melanoma) of 65.5 µM.

For `COC(=O)C12C3C4C1C1C2C3C41C(=O)OC(C)(C)C` (stereo not drawn), the TGI (IGROV1 ovarian) was greater than 100 µM, the TGI (NCI-H522 lung) was greater than 100 µM and the TGI (NCI-H23 lung) was greater than 100 µM. The TGI (SK-MEL-5 melanoma) was greater than 100 µM, the TGI (K-562 leukemia) was greater than 100 µM and the TGI (EKVX NSCLC) was greater than 100 µM. It also gave a TGI (NCI-H226 lung) greater than 100 µM and a TGI (UACC-257 melanoma) greater than 100 µM.

Work on `O=C1CCCC/C(=C/c2ccccc2)N1` yielded a TGI (IGROV1 ovarian) greater than 100 µM, a TGI (NCI-H522 lung) greater than 100 µM and a TGI (NCI-H23 lung) greater than 100 µM. The TGI (K-562 leukemia) was greater than 100 µM, the TGI (EKVX NSCLC) was greater than 100 µM and the TGI (NCI-H226 lung) was greater than 100 µM. The TGI (UACC-257 melanoma) was greater than 100 µM.

Work on `O=C(O/N=C1/CCCC/C1=C\c1ccccc1)c1ccccc1` yielded a TGI (IGROV1 ovarian) of 0.78 µM, a TGI (NCI-H522 lung) greater than 100 µM and a TGI (NCI-H23 lung) greater than 100 µM. It also gave a TGI (SK-MEL-5 melanoma) of 0.34 µM, a TGI (K-562 leukemia) of 41 µM and a TGI (EKVX NSCLC) greater than 100 µM. The TGI (NCI-H226 lung) was greater than 100 µM and the TGI (UACC-257 melanoma) was greater than 100 µM.

`CC(C)(C)[SiH]12(OC(C(F)(F)F)(C(F)(F)F)c3ccccc31)OC(C(F)(F)F)(C(F)(F)F)c1ccccc12` showed a TGI (NCI-H522 lung) of 17.7 µM, a TGI (NCI-H23 lung) of 9.64 µM and a TGI (SK-MEL-5 melanoma) of 22.1 µM. The TGI (K-562 leukemia) was 18.2 µM, the TGI (EKVX NSCLC) was 14.1 µM and the TGI (NCI-H226 lung) was 5.05 µM. For the same molecule, the TGI (UACC-257 melanoma) was 27.7 µM.

In the case of `S=C(N/N=C/c1ccco1)NC12CC3CC(CC(C3)C1)C2`, the TGI (IGROV1 ovarian) was greater than 100 µM, the TGI (NCI-H522 lung) was greater than 100 µM and the TGI (NCI-H23 lung) was greater than 100 µM. For the same molecule, the TGI (SK-MEL-5 melanoma) was greater than 100 µM, the TGI (K-562 leukemia) was greater than 100 µM and the TGI (EKVX NSCLC) was greater than 100 µM. It also gave a TGI (NCI-H226 lung) greater than 100 µM and a TGI (UACC-257 melanoma) greater than 100 µM.

— PubChem BioAssay (NCI)
